The text below walks through data of BindingDB's records for doi:10.7270/Q2NC5ZRN (Burnham Center For Chemical Genomics, 2012).

This experiment deals with DNA (cytosine-5)-methyltransferase 1 (Homo sapiens, UniProt P26358). Description: DNMT1 methyltransferase inhibitors, confirmation, biochemical, fluorescent molecular beacon (AID 602386).
DNA (cytosine-5)-methyltransferase 1, sequence (P26358 whole entry): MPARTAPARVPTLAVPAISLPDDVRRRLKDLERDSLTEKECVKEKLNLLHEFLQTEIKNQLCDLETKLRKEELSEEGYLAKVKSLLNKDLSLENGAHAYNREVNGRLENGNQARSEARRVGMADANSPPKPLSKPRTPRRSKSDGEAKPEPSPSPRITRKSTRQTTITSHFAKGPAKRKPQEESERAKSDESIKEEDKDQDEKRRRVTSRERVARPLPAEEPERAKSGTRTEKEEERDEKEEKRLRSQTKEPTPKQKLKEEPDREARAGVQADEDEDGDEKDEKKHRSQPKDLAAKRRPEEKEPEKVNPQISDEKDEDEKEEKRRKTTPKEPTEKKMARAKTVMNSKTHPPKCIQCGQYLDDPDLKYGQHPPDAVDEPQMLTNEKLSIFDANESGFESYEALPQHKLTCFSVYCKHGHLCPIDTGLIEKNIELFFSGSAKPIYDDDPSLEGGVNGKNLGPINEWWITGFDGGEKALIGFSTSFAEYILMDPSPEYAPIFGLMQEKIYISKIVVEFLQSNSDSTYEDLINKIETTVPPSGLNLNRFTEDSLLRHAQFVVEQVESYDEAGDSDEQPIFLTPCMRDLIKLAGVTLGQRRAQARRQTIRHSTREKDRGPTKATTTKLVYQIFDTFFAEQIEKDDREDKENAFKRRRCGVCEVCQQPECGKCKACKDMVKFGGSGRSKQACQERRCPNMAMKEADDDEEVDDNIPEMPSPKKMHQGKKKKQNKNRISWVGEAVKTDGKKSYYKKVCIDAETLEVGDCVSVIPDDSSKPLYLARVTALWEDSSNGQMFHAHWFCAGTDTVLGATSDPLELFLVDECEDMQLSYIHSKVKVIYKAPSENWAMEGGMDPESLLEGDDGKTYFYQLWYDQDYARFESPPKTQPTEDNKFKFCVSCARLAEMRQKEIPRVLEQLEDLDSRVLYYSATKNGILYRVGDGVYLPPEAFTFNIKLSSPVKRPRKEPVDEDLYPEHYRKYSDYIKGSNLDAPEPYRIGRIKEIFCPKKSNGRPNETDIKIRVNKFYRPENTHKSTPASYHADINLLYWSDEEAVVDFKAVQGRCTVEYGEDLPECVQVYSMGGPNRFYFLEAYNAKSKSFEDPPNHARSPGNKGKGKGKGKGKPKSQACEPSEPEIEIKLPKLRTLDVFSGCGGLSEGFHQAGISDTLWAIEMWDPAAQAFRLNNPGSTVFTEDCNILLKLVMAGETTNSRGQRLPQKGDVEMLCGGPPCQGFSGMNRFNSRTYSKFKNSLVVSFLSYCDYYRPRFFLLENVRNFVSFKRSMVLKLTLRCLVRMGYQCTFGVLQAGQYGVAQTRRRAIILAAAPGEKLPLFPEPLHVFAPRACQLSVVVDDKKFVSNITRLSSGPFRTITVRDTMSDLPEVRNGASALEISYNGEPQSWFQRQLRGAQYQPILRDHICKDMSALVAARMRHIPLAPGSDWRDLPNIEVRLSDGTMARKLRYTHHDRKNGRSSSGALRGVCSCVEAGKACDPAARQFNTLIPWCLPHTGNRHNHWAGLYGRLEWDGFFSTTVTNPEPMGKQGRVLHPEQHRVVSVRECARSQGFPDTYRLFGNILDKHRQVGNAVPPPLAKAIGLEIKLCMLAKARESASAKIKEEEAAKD
In the case of `CCOC1=CC(=Cc2c(-c3ccccc3)[nH]n(-c3nc(-c4ccc(Br)cc4)cs3)c2=O)C=CC1=O`, the midpoint of inhibition, the IC50, lay at 4.35 µM.
Turning to `O=C1N=c2ccccc2=C1NNc1ccc(F)cc1`, the IC50 – broadly, the midpoint of a concentration-inhibition curve – amounted to 19.3 µM.
Under `CCOc1ccc(CN=Nc2ccc(S(=O)(=O)Nc3ccccc3C(=O)O)cc2[N+](=O)[O-])cc1` stands 5.78 µM; under `CCCCn1c(NC(=S)Nc2ccccc2)nc2ccccc21`, 1.02 µM; under `C=CCOc1ccc(CN=Nc2ccc(S(=O)(=O)Nc3ccccc3C(=O)O)cc2[N+](=O)[O-])cc1OC` [2-[[4-[2-[(3-methoxy-4-prop-2-enoxy-phenyl)methylidene]hydrazinyl]-3-nitro-phenyl]sulfonylamino]benzoic acid], 5.32 µM.
Next, `COc1cc(NS(=O)(=O)c2ccc(NC(=S)NC(=O)c3sc4ccccc4c3Cl)cc2)nc(OC)n1` [3-chloranyl-N-[[4-[(2,6-dimethoxypyrimidin-4-yl)sulfamoyl]phenyl]carbamothioyl]-1-benzothiophene-2-carboxamide]: 41 µM.
Next, `NC(=NNC=c1ccc(=C2C=CC(=O)C(C(=O)O)=C2)o1)N[N+](=O)[O-]` [5-(5-{2-[amino(nitroimino)methyl]carbonohydrazonoyl}-2-furyl)-2-hydroxybenzoic acid]: 3.94 µM; `Cc1[nH]n(-c2ccccc2)c(=O)c1C=C1NC(=S)NC1=O` [5-methyl-4-[(Z)-(5-oxo-2-sulfanylideneimidazolidin-4-ylidene)methyl]-2-phenyl-4H-pyrazol-3-one]: 8.39 µM.
Compound `CC=CC=CC(=O)C1C(=O)[C@]2(C)C(=O)C(C)(O)[C@H]1[C@H]([C@]1(C)OC(=O)C(C)C1=O)[C@H]2C(=O)C=CC=CC` (stereo partly drawn) [(1S,4R,6E,7S,8R)-8-[(2E,4E)-hexa-2,4-dienoyl]-2-hydroxy-7-[(2S)-5-hydroxy-2,4-dimethyl-3-oxofuran-2-yl]-6-[(2E,4E)-1-hydroxyhexa-2,4-dienylidene]-2,4-dimethylbicyclo[2.2.2]octane-3,5-dione] displayed an IC50 of 5.25 µM.
Under `COc1ccccc1N1CC=[N+](N[CH-]c2ccc(Cl)c([N+](=O)[O-])c2)CC1` [(E)-1-(4-chloro-3-nitrophenyl)-N-[4-(2-methoxyphenyl)piperazin-1-yl]methanimine] stands above 99 µM; under `Cc1ccc(C(=O)N[n+]2cc(O)[c-](-c3nc(-c4cccc([N+](=O)[O-])c4)cs3)c2N)cc1` [MLS000391743], above 99 µM.
For `CCN(CC)CCOc1ccc2c(c1)C(N=O)c1cc(OCCN(CC)CC)ccc1-2` [MLS000518859], the IC50 is above 99 µM.
`O=C(/C=C/c1ccco1)NCC(=O)NNC1=c2ccccc2=NC1=O` [MLS001075666] showed an IC50 of 3.25 µM.
Compound `CSc1ccc(CN=Nc2ccc(S(=O)(=O)Nc3ccccc3C(=O)O)cc2[N+](=O)[O-])cc1` [MLS002245633] returned an IC50 of 3.26 µM.
For `COc1ccc(OC)c(-n2c(O)c3o[nH]c(-c4ccccc4Cl)c-3c2=O)c1` [SMR000046218], the IC50 amounted to 4.35 µM.
Next, `C=c1[nH]n(-c2cccc(C(=O)O)c2)c(=O)c1=CC=Cc1ccco1` [SMR000113614]: 1.18 µM; `COc1ccc(C=c2c(=CSc3ccc(Cl)cc3)[nH]n(-c3nc4ccccc4s3)c2=O)cc1` [SMR000193462]: 2.86 µM; `NS(=O)(=O)c1ccc(NN=C2C=CC(=O)NC2=O)cc1` [SMR000528591]: 7.65 µM.
Under `O=C(CSc1nc(O)cc(=O)[nH]1)Nc1ccccc1[N+](=O)[O-]` [SMR000620617] stands 8.51 µM.
